According to article PMC6212833 (mBio, 2018):
Where a name gives a salt, the structure may show the parent alone.

system: B. mandrillaris trophozoites; test: Nitroxoline structure-activity relationship dose response (CellTiter Glo); assay type: cell-based, Balamuthia mandrillaris; details: 72 h, 8-point dose response in triplicate; listed as 8-Hydroxy-5-quinolinesulfonic acid [13]

| Compound | IC50 [µM] |
| --- | --- |
| O=S(=O)(O)c1ccc(O)c2ncccc12 [compound 13, 8-Hydroxy-5-quinolinesulfonic acid] | 338 |

same assay, conditions: 72 h, 8-point dose response in triplicate; read-out: IC50

| Compound | IC50 [µM] |
| --- | --- |
| [O-][n+]1cccc2cccc(O)c21 [compound 16, 8-Quinolinol N-oxide] | 165 |
| 6-Nitroquinolone [compound 15] | 189 |
| CCOc1ccc([N+](=O)[O-])c2cccnc12 [compound 17, 8-Ethoxy-5-nitroquinoline] | 434 |

same assay, conditions: Balamuthia mandrillaris, 72 h

| Compound | IC50 [µM] |
| --- | --- |
| O=C(O)c1ccc2ccccc2n1 [compound 18, 2-Quinolinecarboxylic acid] | 884 |

same assay, conditions: Balamuthia mandrillaris, 72 h, 8-point dose response in triplicate

| Compound | IC50 [µM] |
| --- | --- |
| O=S(=O)(O)c1ccc(O)c2ncccc12 [compound 13, 8-Hydroxy-5-quinolinesulfonic acid] | 338 |
| O=[N+]([O-])c1cnc2ccccc2c1O [compound 19, 3-Nitro-4-quinolinol] | 1320 |
| c1cnc2c(c1)ccc1cccnc12 [compound 14, 1,10-Phenanthroline] | 15.9 |

same assay, conditions: Balamuthia mandrillaris, 72 h, 8-point dose response in triplicate; read-out: IC50

| Compound | IC50 [µM] |
| --- | --- |
| Oc1ccc(Br)c2cccnc12 [compound 6, 5-Bromo-8-hydroxyquinoline] | 48.9 |
| Cc1ccc(O)c2ncccc12 [compound 7, 5-Methylquinolin-8-ol] | 19.9 |
| O=[N+]([O-])c1cccc2ncccc12 [compound 3, 5-Nitroquinoline] | 82.7 |
| Oc1cccc2cccnc12 [compound 2, 8-Hydroxyquinoline] | 30.5 |

same assay, conditions: SAR experiments

| Compound | activity against B. mandrillaris |
| --- | --- |
| O=S(=O)(O)c1ccc(O)c2ncccc12 [compound 13, 8-Hydroxy-5-quinolinesulfonic acid] | inactive |
| c1cnc2c(c1)ccc1cccnc12 [compound 14, 1,10-Phenanthroline] | demonstrated activity against B. mandrillaris |

system: B. mandrillaris trophozoites; test: microbe, parasite or virus in culture; assay type: cell-based, Balamuthia mandrillaris; details: 20 µM

| Compound | % Inhibition [%] |
| --- | --- |
| NC(=O)NO [Hydroxyurea] | 44 |

same assay, conditions: 20 µM, 72 h, relative to positive and negative controls

| Compound | % Inhibition [%] |
| --- | --- |
| Demecarium Bromide | 60 |
| C[CH2][Hg][S]c1ccccc1C(=O)O [Ethylmercurithiosalicylic acid] | 107 |
| CC(=O)[O][Hg][c]1ccccc1 [Phenylmercuric Acetate] | 107 |

same assay, conditions: Balamuthia mandrillaris, 72 h

| Compound | inhibition at 20 µM [%] |
| --- | --- |
| [H]/N=C(\N/C(=N/[H])NCCCCCCNC(=N)NC(=N)Nc1ccc(Cl)cc1)Nc1ccc(Cl)cc1 [Chlorhexidine] | 64 |
| CO/N=C(\C(=O)N[C@@H]1C(=O)N2C(C(=O)O)=C(COC(N)=O)CS[C@H]12)c1ccco1 [Cefuroxime Sodium] | 41 |
| NC(=O)c1ccc[n+]([C@@H]2O[C@H](COP(=O)([O-])OP(=O)(O)OC[C@H]3O[C@@H](n4cnc5c(N)ncnc54)[C@H](O)[C@@H]3O)[C@@H](O)[C@H]2O)c1 [Nadide] | 87 |
| CN(C)c1ccc(C(=C2C=CC(=[N+](C)C)C=C2)c2ccc(N(C)C)cc2)cc1 [Gentian Violet] | 62 |
| CC[n+]1c(-c2ccccc2)c2cc(N)ccc2c2ccc(N)cc21 [Homidium Bromide] | 44 |
| Oc1ccc(Cl)cc1Cc1cc(Cl)ccc1O [Dichlorophene, Dichlorophen, Dichlorophene] | 42 |
| CCCCCCCCCCCCCCCC[N+](C)(C)C [Cetrimonium] | 56 |
| C[n+]1c2cc(N)ccc2cc2ccc(N)cc21 [Acriflavinium Hydrochloride] | 33 |
| O=C(O)c1ccccc1-c1c2cc(I)c(=O)c(I)c-2oc2c(I)c(O)c(I)cc12 [Erythrosine Sodium] | 66 |
| CCCCC(CC)CNC(=N)NC(=N)NCCCCCCNC(=N)NC(=N)NCC(CC)CCCC (stereo not shown) [Alexidine Hydrochloride] | 79 |
| N=C(N)c1ccc(/N=N/Nc2ccc(C(=N)N)cc2)cc1 [Diminazene] | 46 |
| Cc1cc(-c2ccc(/N=N/c3ccc4c(S(=O)(=O)O)cc(S(=O)(=O)O)c(N)c4c3O)c(C)c2)ccc1/N=N/c1ccc2c(S(=O)(=O)O)cc(S(=O)(=O)O)c(N)c2c1O [Evans Blue] | 74 |
| Cc1cc(N)c2ccccc2[n+]1CCCCCCCCCC[n+]1c(C)cc(N)c2ccccc21 [Dequadin] | 69 |
